According to patent publication US20060281755A1, “SYNERGISTIC MODULATION OF FLT3 KINASE USING AMINOPYRIMIDINES KINASE MODULATORS” (priority 2005, published 2006):

Columns and labels:
[1] = target: T1, FLT ligand-induced wild-type FLT3 phosphorylation in Baf3 FLT3 cells (Homo sapiens, UniProt P36888); test: Cell-based FLT3 receptor ELISA
T1 sequence (P36888 27-993): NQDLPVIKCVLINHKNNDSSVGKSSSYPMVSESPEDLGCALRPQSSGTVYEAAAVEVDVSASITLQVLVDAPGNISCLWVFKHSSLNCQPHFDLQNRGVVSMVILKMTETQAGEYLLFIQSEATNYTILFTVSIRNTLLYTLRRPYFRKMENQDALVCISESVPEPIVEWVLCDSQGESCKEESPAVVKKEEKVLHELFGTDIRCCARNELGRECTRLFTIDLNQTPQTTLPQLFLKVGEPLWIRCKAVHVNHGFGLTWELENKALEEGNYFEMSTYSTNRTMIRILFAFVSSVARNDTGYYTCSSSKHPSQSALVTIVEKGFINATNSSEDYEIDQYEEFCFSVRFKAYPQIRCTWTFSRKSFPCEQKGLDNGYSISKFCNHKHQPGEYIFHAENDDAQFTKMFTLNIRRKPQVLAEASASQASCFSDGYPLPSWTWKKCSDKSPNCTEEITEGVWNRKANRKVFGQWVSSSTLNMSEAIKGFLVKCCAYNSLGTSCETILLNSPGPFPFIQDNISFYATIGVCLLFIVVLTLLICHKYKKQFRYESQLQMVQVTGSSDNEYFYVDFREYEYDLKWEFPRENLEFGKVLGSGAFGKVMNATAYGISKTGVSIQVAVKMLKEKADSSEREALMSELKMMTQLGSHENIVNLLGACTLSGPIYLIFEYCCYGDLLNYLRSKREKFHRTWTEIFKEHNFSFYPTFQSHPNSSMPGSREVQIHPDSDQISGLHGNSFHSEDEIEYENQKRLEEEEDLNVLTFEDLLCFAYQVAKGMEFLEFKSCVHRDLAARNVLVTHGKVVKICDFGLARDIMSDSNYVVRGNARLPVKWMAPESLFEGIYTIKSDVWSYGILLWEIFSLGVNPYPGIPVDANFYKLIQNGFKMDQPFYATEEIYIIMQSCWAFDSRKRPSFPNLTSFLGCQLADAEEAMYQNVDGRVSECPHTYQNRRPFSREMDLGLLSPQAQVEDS
Description: Specific cellular inhibition of FLT ligand-induced wild-type FLT3 phosphorylation was measured in the following manner: Baf3 FLT3 cells overexpressing the FLT3 receptor were obtained from Dr. Michael Heinrich (Oregon Health and Sciences University).

[2] = target: T2, isolated kinase domain of the human FLT3 receptor (a.a. 571-993) (Homo sapiens, UniProt P36888); test: FLT3 fluorescence polarization kinase assay; type: biochemical; conditions: uncertainty ±10%
T2 construct: human FLT3 receptor (a.a. 571-993)
T2 sequence (P36888 571-993): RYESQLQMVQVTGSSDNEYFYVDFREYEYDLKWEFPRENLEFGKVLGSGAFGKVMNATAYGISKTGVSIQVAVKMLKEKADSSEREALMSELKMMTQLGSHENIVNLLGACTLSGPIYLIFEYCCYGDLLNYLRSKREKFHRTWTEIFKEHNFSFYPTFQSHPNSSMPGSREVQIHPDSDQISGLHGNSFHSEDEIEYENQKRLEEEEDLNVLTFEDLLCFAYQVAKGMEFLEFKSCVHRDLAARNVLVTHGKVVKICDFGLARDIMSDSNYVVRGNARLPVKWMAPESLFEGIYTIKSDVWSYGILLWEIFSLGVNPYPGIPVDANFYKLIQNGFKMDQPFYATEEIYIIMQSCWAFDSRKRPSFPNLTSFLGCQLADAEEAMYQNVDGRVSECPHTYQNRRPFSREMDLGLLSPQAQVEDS
Excerpt: The FLT3 FP assay utilizes the fluorescein-labeled phosphopeptide and the anti-phosphotyrosine antibody included in the Panvera Phospho-Tyrosine Kinase Kit (Green) supplied by Invitrogen. When FLT3 phosphorylates polyGlu4Tyr, the fluorescein-labeled phosphopeptide is displaced from the anti-phosphotyrosine antibody by the phosphorylated poly Glu4Tyr, thus decreasing the FP value. […] The kinase reaction is stopped with the addition of EDTA. The fluorescein-labeled phosphopeptide and the anti-phosphotyrosine antibody are added and incubated for 30 minutes at room temperature.

MV4-11 cells = test: Inhibition of MV4-11 cell proliferation (CellTiterGlo); conditions: Homo sapiens, MV4-11, 72 h, read-out: MV4-11 (uM)
Description: To measure total cell growth an equal volume of CellTiterGlo reagent was added to each well, according to the manufacturer's instructions, and luminescence was quantified.
MV4-11 cells express the FLT3 internal tandem duplication mutation, and thus are entirely dependent upon FLT3 activity for growth. […] In contrast, the Baf3 cell proliferation is driven by the cytokine IL-3 and thus are used as a non-specific toxicity control for test compounds.

Row | Compound | IC50 [1] | IC50 [2] | IC50 (MV4-11 cells)
1 | CO/N=C/c1c(N)ncnc1N1CCN(C(=O)Cc2ccc(C(C)C)cc2)CC1 [Compound 7, 4-Amino-6-{4-[2-(4-isopropyl-phenyl)-acetyl]-piperazin-1-yl}-pyrimidine-5-carbaldehyde O-methyl-oxime] | 2 nM | 14 nM | 0.024 µM
2 | CS(=O)(=O)NCCO/N=C/c1c(N)ncnc1N1CCN(C(=O)Nc2ccc(OC3CCC3)nc2)CC1 [Compound 33, 4-{6-Amino-5-[(2-methanesulfonylamino-ethoxyimino)-methyl]-pyrimidin-4-yl}-piperazine-1-carboxylic acid (6-cyclobutoxy-pyridin-3-yl)-amide] |  | 1150 nM | 2.8 µM
3 | CCO/N=C\c1c(N)ncnc1N1CCN(C(=O)Cc2ccc(C(C)C)cc2)CC1 [Compound 14, 4-Amino-6-{4-[2-(4-isopropyl-phenyl)-acetyl]-piperazin-1-yl}-pyrimidine-5-carbaldehyde O-ethyl-oxime (syn-configuration for —C═N—O—)] | 158 nM | 24 nM | 0.029 µM
4 | CCO/N=C/c1c(N)ncnc1N1CCN(C(=O)Cc2ccc(C(C)C)cc2)CC1 [Compound 13, 4-Amino-6-{4-[2-(4-isopropyl-phenyl)-acetyl]-piperazin-1-yl}-pyrimidine-5-carbaldehyde O-ethyl-oxime (anti-configuration for —C═N—O—)] | 116 nM | 8 nM | 0.013 µM
5 | NCCO/N=C/c1c(N)ncnc1N1CCN(C(=O)Nc2ccc(OC3CCC3)nc2)CC1 [Compound 31, 4-{6-Amino-5-[(2-amino-ethoxyimino)-methyl]-pyrimidin-4-yl}-piperazine-1-carboxylic acid (6-cyclobutoxy-pyridin-3-yl)-amide] | 206 nM | 1450 nM | 1.3 µM
6 | CCO/N=C/c1c(N)ncnc1N1CCN(C(=O)Nc2ccc(N3CCOCC3)cc2)CC1 [Compound 15, 4-[6-Amino-5-(ethoxyimino-methyl)-pyrimidin-4-yl]-piperazine-1-carboxylic acid (4-morpholin-4-yl-phenyl)-amide] | 735 nM | 126 nM | 0.35 µM
7 | Nc1ncnc(N2CCN(C(=O)Nc3ccc(OC4CCC4)nc3)CC2)c1/C=N/OCCN1CCOCC1 [Compound 30, 4-{6-Amino-5-[(2-morpholin-4-yl-ethoxyimino)-methyl]-pyrimidin-4-yl}-piperazine-1-carboxylic acid (6-cyclobutoxy-pyridin-3-yl)-amide] |  | 1740 nM | 2.5 µM

Further lines, results first:

Row | IC50 [1] | IC50 [2] | IC50 (MV4-11 cells) | Compound
8 | 77 nM | 5150 nM | 0.79 µM | NCCO/N=C/c1c(N)ncnc1N1CCN(C(=O)Nc2ccc(N3CCOCC3)cc2)CC1 [Compound 32, 4-{6-Amino-5-[(2-amino-ethoxyimino)-methyl]-pyrimidin-4-yl}-piperazine-1-carboxylic acid (4-morpholin-4-yl-phenyl)-amide]
9 |  | 1510 nM | 2.5 µM | NCCO/N=C/c1c(N)ncnc1N1CCN(C(=O)Nc2ccc(N3CCCC3)cc2)CC1 [Compound 34, 4-{6-Amino-5-[(2-amino-ethoxyimino)-methyl]-pyrimidin-4-yl}-piperazine-1-carboxylic acid (4-pyrrolidin-1-yl-phenyl)-amide]
10 |  | > 10000 nM | 3 µM | Nc1ncnc(N2CCN(C(=O)Nc3ccc(N4CCOCC4)cc3)CC2)c1/C=N/OCCN1CCOCC1 [Compound 29, 4-{6-Amino-5-[(2-morpholin-4-yl-ethoxyimino)-methyl]-pyrimidin-4-yl}-piperazine-1-carboxylic acid (4-morpholin-4-yl-phenyl)-amide]
11 | 16 nM | 122 nM | 0.66 µM | CO/N=C/c1c(N)ncnc1N1CCCN(C(=O)Nc2ccc(OC(C)C)cc2)CC1 [Compound 24, 4-[6-Amino-5-(methoxyimino-methyl)-pyrimidin-4-yl]-[1,4]diazepane-1-carboxylic acid (4-isopropoxy-phenyl)-amide]
12 |  | 1150 nM | 2 µM | CC(C)Oc1ccc(NC(=O)N2CCN(c3ncnc(N)c3/C=N/OCCN)CC2)cc1 [Compound 25, 4-{6-Amino-5-[(2-amino-ethoxyimino)-methyl]-pyrimidin-4-yl}-piperazine-1-carboxylic acid (4-isopropoxy-phenyl)-amide]
13 |  |  | > 1 µM | CCNC(=O)NCCO/N=C/c1c(N)ncnc1N1CCN(C(=O)Nc2ccc(OC(C)C)cc2)CC1 [Compound 26, 4-(6-Amino-5-{[2-(3-ethyl-ureido)-ethoxyimino]-methyl}-pyrimidin-4-yl)-piperazine-1-carboxylic acid (4-isopropoxy-phenyl)-amide]
